Data published in patent US9371296B2, “Bicyclic 1,3,4-oxadiazole derivatives as sphingosine-1-phosphate receptors' modulators” (Allergan, Inc., priority 2014, dated 2016).

Biological target: T1, human S1P1 receptor (Homo sapiens, UniProt P21453)
T1 construct: expressed in transfected cells; membranes used
Experiment: GTP γ35S binding assay for S1P1 activity
Format: biochemical
Conditions: 5 microgram membrane protein, test compounds 0.08 to 5,000 nM, 30 min at 25° C.
Experimental: Compounds were synthesized and tested for S1P1 activity using the GTP γ^35S binding assay. These compounds may be assessed for their ability to activate or block activation of the human S1P1 receptor in cells stably expressing the S1P1 receptor.
GTP γ^35S binding was measured in medium containing (mM) HEPES 25, pH 7.4, MgCl2 10, NaCl 100, dithiothreitol 0.5, digitonin 0.003%, 0.2 nM GTP γ^35S, and 5 microgram membrane protein in a volume of 150 microliters. Test compounds were included in the concentration range from 0.08 to 5,000 nM unless indicated otherwise. Membranes were incubated with 100 μM 5′-adenylylimmidodiphosphate for 30 min, and subsequently with 10 micromolar GDP for 10 min on ice. Drug solutions and membrane were mixed, and then reactions were initiated by adding GTP γ^35S and continued for 30 min at 25° C. Reaction mixtures were filtered over Whatman GF/B filters under vacuum, and washed three times with 3 mL of ice-cold buffer (HEPES 25, pH7.4, MgCl2 10 and NaCl 100). Filters were dried and mixed with scintillant, and counted for ^35S activity using a β-counter. Agonist-induced GTP γ^35S binding was obtained by subtracting that in the absence of agonist. Binding data were analyzed using a non-linear regression method. In case of antagonist assay, the reaction mixture contained 10 nM […] in the presence of test antagonist at concentrations ranging from 0.08 to 5000 nM.

T1 sequence (P21453 whole entry): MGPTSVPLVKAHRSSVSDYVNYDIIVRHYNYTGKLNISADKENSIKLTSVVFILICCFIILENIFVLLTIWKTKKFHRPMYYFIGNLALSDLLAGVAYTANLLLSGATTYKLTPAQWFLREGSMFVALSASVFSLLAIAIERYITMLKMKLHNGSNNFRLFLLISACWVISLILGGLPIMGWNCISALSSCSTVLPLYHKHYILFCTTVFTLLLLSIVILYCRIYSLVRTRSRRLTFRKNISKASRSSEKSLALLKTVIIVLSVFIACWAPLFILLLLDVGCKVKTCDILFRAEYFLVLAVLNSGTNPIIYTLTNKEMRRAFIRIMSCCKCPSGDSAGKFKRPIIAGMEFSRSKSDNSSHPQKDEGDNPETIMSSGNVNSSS

| EC50 [nM] | Compound |
| --- | --- |
| 571 | CCC/C(=C\c1nnc(-c2ccc(CNCCC(=O)O)c3ccccc23)o1)c1ccccc1 [Compound 2, 3-{[(4-{5-[(1E)-2-phenylpent-1-en-1-yl]-1,3,4-oxadiazol-2-yl}naphthalen-1-yl)methyl]amino}propanoic acid] |
| 85 | CCCC/C(=C\c1nnc(-c2ccc(CNCCC(=O)O)c3ccccc23)o1)c1ccccc1 [Compound 4, 3-{[(4-{5-[(1E)-2-phenylhex-1-en-1-yl]-1,3,4-oxadiazol-2-yl}naphthalen-1-yl)methyl]amino}propanoic acid] |
| 33 | CCCC/C(=C\c1nnc(-c2ccc(CNCCC(=O)O)c3ncccc23)o1)c1ccccc1 [Compound 8, 3-{[(5-{5-[(1E)-2-phenylhex-1-en-1-yl]-1,3,4-oxadiazol-2-yl}quinolin-8-yl)methyl]amino}propanoic acid] |
| 0.26 | CCCC(Cc1nnc(-c2ccc(CNCCCP(=O)(O)O)c3ncccc23)o1)c1ccccc1 (stereo not drawn) [Compound 11, {3-[({5-[5-(2-phenylpentyl)-1,3,4-oxadiazol-2-yl]quinolin-8-yl}methyl)amino]propyl}phosphonic acid] |
| 156 | CCCC/C(=C\c1nnc(-c2ccc(CN3CC(C(=O)O)C3)c3ccccc23)o1)c1ccccc1 [Compound 14, 1-[(4-{5-[(1E)-2-phenylhex-1-en-1-yl]-1,3,4-oxadiazol-2-yl}naphthalen-1-yl)methyl]azetidine-3-carboxylic acid] |
| 461 | CCCC(Cc1nnc(-c2ccc(CN3CC(C(=O)O)C3)c3ncccc23)o1)c1ccccc1 (stereo not drawn) [Compound 18, 1-({5-[5-(2-phenylpentyl)-1,3,4-oxadiazol-2-yl]quinolin-8-yl}methyl)azetidine-3-carboxylic acid] |
| 417 | CCCCCC(Cc1nnc(-c2ccc(CNCCC(=O)O)c3ncccc23)o1)c1ccccc1 (stereo not drawn) [Compound 20, 3-[({5-[5-(2-phenylheptyl)-1,3,4-oxadiazol-2-yl]quinolin-8-yl}methyl)amino]propanoic acid] |
| 1.05 | CCCCC(Cc1nnc(-c2ccc(CNCCCP(=O)(O)O)c3ncccc23)o1)c1ccccc1 (stereo not drawn) [Compound 21, {3-[({5-[5-(2-phenylhexyl)-1,3,4-oxadiazol-2-yl]quinolin-8-yl}methyl)amino]propyl}phosphonic acid] |
| 2.87 | CCCCCC(Cc1nnc(-c2ccc(CNCCCP(=O)(O)O)c3ncccc23)o1)c1ccccc1 (stereo not drawn) [Compound 22, {3-[({5-[5-(2-phenylheptyl)-1,3,4-oxadiazol-2-yl]quinolin-8-yl}methyl)amino]propyl}phosphonic acid] |
| 1090 | CCCCCC(Cc1nnc(-c2ccc(CN3CC(C(=O)O)C3)c3ncccc23)o1)c1ccccc1 (stereo not drawn) [Compound 24, 1-({5-[5-(2-phenylheptyl)-1,3,4-oxadiazol-2-yl]quinolin-8-yl}methyl)azetidine-3-carboxylic acid] |
| 163 | (E)-1-((5-(5-(2-phenylpent-1-en-1-yI)-1,3,4-oxadiazol-2-yl)quinolin-8-yl)methyl)azetidine-3-carboxylic acid [Compound 15] |

Further lines, the compound ahead of its results:

| Compound | EC50 [nM] |
| --- | --- |
| CCC/C(=C\c1nnc(-c2ccc(CNCCCP(=O)(O)O)c3ccccc23)o1)c1ccccc1 [Compound 1, (3-{[(4-{5-[(1E)-2-phenylpent-1-en-1-yl]-1,3,4-oxadiazol-2-yl}naphthalen-1-yl)methyl]amino}propyl)phosphonic acid] | 27 |
| CCCC/C(=C\c1nnc(-c2ccc(CNCCCP(=O)(O)O)c3ccccc23)o1)c1ccccc1 [Compound 3, (3-{[(4-{5-[(1E)-2-phenylhex-1-en-1-yl]-1,3,4-oxadiazol-2-yl}naphthalen-1-yl)methyl]amino}propyl) phosphonic acid] | 2.52 |
| CCC/C(=C\c1nnc(-c2ccc(CNCCCP(=O)(O)O)c3ncccc23)o1)c1ccccc1 [Compound 5, (3-{[(5-{5-[(1E)-2-phenylpent-1-en-1-yl]-1,3,4-oxadiazol-2-yl}quinolin-8-yl)methyl]amino}propyl) phosphonic acid] | 0.61 |
| CCC/C(=C\c1nnc(-c2ccc(CNCCC(=O)O)c3ncccc23)o1)c1ccccc1 [Compound 6, 3-{[(5-{5-[(1E)-2-phenylpent-1-en-1-yl]-1,3,4-oxadiazol-2-yl}quinolin-8-yl)methyl]amino}propanoic acid] | 150 |
| CCCC/C(=C\c1nnc(-c2ccc(CNCCCP(=O)(O)O)c3ncccc23)o1)c1ccccc1 [Compound 7, (3-{[(5-{5-[(1E)-2-phenylhex-1-en-1-yl]-1,3,4-oxadiazol-2-yl}quinolin-8-yl)methyl]amino}propyl) phosphonic acid] | 0.5 |
| CCCCCC(Cc1nnc(-c2ccc(CNCCCP(=O)(O)O)c3ccccc23)o1)c1ccccc1 (stereo not drawn) [Compound 9, {3-[({4-[5-(2-phenylheptyl)-1,3,4-oxadiazol-2-yl]naphthalen-1-yl}methyl)amino]propyl}phosphonic acid] | 14 |
| CCCCCC(Cc1nnc(-c2ccc(CNCCC(=O)O)c3ccccc23)o1)c1ccccc1 (stereo not drawn) [Compound 10, 3-[({4-[5-(2-phenylheptyl)-1,3,4-oxadiazol-2-yl]naphthalen-1-yl}methyl)amino]propanoic acid] | 320 |
| CCCC(Cc1nnc(-c2ccc(CNCCC(=O)O)c3ncccc23)o1)c1ccccc1 (stereo not drawn) [Compound 12, 3-[({5-[5-(2-phenylpentyl)-1,3,4-oxadiazol-2-yl]quinolin-8-yl}methyl)amino]propanoic acid] | 340 |
| CCC/C(=C\c1nnc(-c2ccc(CN3CC(C(=O)O)C3)c3ccccc23)o1)c1ccccc1 [Compound 13, 1-[(4-{5-[(1E)-2-phenylpent-1-en-1-yl]-1,3,4-oxadiazol-2-yl}naphthalen-1-yl)methyl]azetidine-3-carboxylic acid] | 607 |
| CCCC/C(=C\c1nnc(-c2ccc(CN3CC(C(=O)O)C3)c3ncccc23)o1)c1ccccc1 [Compound 16, 1-[(5-{5-[(1E)-2-phenylhex-1-en-1-yl]-1,3,4-oxadiazol-2-yl}quinolin-8-yl)methyl]azetidine-3-carboxylic acid] | 29 |
| CCCCCC(Cc1nnc(-c2ccc(CN3CC(C(=O)O)C3)c3ccccc23)o1)c1ccccc1 (stereo not drawn) [Compound 17, 1-({4-[5-(2-phenylheptyl)-1,3,4-oxadiazol-2-yl]naphthalen-1-yl}methyl)azetidine-3-carboxylic acid] | 942 |
| CCCCC(Cc1nnc(-c2ccc(CNCCC(=O)O)c3ncccc23)o1)c1ccccc1 (stereo not drawn) [Compound 19, 3-[({5-[5-(2-phenylhexyl)-1,3,4-oxadiazol-2-yl]quinolin-8-yl}methyl)amino]propanoic acid] | 257 |
| CCCCC(Cc1nnc(-c2ccc(CN3CC(C(=O)O)C3)c3ncccc23)o1)c1ccccc1 (stereo not drawn) [Compound 23, 1-({5-[5-(2-phenylhexyl)-1,3,4-oxadiazol-2-yl]quinolin-8-yl}methyl)azetidine-3-carboxylic acid] | 376 |
